From patent US5741794A, “Heterocyclic sulfonamide derivatives as antagonists of PAF and angiotensin II” (British Biotech Pharmaceuticals Limited, priority 1992, dated 1998)

Molecular target: T1, PAF receptor (Homo sapiens, UniProt P25105)
T1 construct: from tissue; host or cells: human platelets (platelet concentrates from a hospital blood bank), lysed platelet membranes
Assay: Inhibition of [^3 H]-PAF Receptor Binding (human platelet plasma membrane)
Details: 0.5 nM [^3 H]-PAF, 0° C., 1 hour incubation, pH 7.0
Description: Inhibition of [^3 H]-PAF Receptor Binding
The inhibition of [^3 H]-PAF binding to human platelet plasma membrane by compounds of general formula I was determined by isotopic labelling and filtration techniques. Platelet concentrates were obtained from a hospital blood bank. These platelet concentrates (500-2500 mi.) were centrifuged at 800 rpm for 10 minutes in a SORVALL RC3B centrifuge to remove the red blood cells present. (The word SORVALL is a trade mark.) The supernatant was subsequently centrifuged at 3,000 rpm in a SORVALL RC3B centrifuge to pellet the platelets present. The platelet rich pellets were resuspended in a minimum volume of buffer (150 mM NaCl, 10 mM Tris, 2 mM EDTA, pH 7.5) and layered onto Ficoll-Paque gradients, 9 ml platelet concentrate to 2 ml Ficoll, and centrifuged at 1,900 rpm for 15 minutes in a SORVALL RT6000 centrifuge. This step removes the residual red blood cells and other nonspecific material such as lymphocytes from the preparation. The platelets which form a band between the plasma and the Ficoll were removed, resuspended in the above buffer and centrifuged at 3,000 rpm for 10 minutes in a SORVALL RT6000 centrifuge. The pelleted platelets were resuspended in buffer (10 mM Tris, 5 mM MgCl2, 2 mM EDTA, pH 7.0), snap freezed in liquid N2 and allowed to thaw slowly at room temperature in order to lyse the platelets. The latter step was repeated at least 3 times to ensure proper lysis. The lysed platelets were centrifuged at 3,000 rpm for 10 minutes in a SORVALL RT6000 centrifuge and resuspended in buffer. The latter step was repeated twice in order to remove any cytoplasmic proteins which may hydrolyse the platelet activating factor (PAF) receptor. The prepared platelet membranes may be stored at -70° C. After thawing the prepared membranes were centrifuged in a SORVALL RT6000 at 3,000 rpm for 10 minutes and resuspended in assay buffer.
The assay was conducted by preparing a series of Tris-buffered solutions of the selected antagonist of predetermined concentrations. […] Each washed residue was dried under vacuum on a sampling manifold and placed into vials containing 20 ml of OPTIPHASE MP scintillation fluid and the radioactivity counted in a liquid scintillation counter. (The word OPTIPHASE is a trade mark.) Defining the counts for total binding with antagonist from a test sample as "TBA"; the counts for total binding from the control sample C1 as "TB"; and the counts for nonspecific binding from the control sample C2 as "NSB", the percent inhibition of each test antagonist can be determined by the following equation: […]

T1 sequence (P25105 whole entry): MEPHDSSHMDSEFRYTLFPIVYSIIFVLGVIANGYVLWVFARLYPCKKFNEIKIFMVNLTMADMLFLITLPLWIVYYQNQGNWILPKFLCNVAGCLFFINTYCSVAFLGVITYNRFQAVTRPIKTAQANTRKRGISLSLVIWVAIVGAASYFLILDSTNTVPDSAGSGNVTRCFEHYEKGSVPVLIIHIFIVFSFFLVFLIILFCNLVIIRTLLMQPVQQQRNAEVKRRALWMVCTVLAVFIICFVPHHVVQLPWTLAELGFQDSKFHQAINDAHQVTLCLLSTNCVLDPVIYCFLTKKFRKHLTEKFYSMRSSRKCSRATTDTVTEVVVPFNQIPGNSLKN

| SMILES | IC50 [nM] |
| --- | --- |
| CCOC(=O)[C@H](CC(C)C)NS(=O)(=O)c1ccc(Cn2ccnc2-c2ccccc2)cc1 [Example 1, N-4-(1H-2-Phenylimidazolylmethyl)phenylsulphonyl-L-leucine ethyl ester] | 7 |
| CCCCc1nc(Cl)c(CO)n1Cc1ccc(S(=O)(=O)N[C@@H](CC(C)C)C(=O)OCC)cc1 [Example 4, N-4-(1H-2-Butyl-4-chloro-5-hydroxymethylimidazolylmethyl)phenylsulphonyl-L-leucine ethyl ester] | 5 |
| CCc1nccn1Cc1ccc(S(=O)(=O)N(C)[C@@H](CC(C)C)C(=O)OC)cc1 [Example 43, N-Methyl-N-4-(1H-2-ethylimidazolylmethyl)phenylsulphonyl-L-leucine methyl ester] | 5 |
| CCOC[C@H](CC(C)C)NS(=O)(=O)c1ccc(Cn2cnc3cccnc32)cc1 [Example 45A, N-4-(3H-Imidazo[4,5-b]pyridylmethyl)phenylsulphonyl-L-leucinyl ethyl ether] | 20 |
